Assay results: US20230159510A1, “NOVEL PRMT5 INHIBITORS” (AMGEN INC., priority 2020, published 2023)

What was measured:
[1] = test system: HCT116 WT cells; test: HCT116 proliferation assay, WT cells (CellTiter-Glo, 6 days); assay type: cell-based; conditions: Homo sapiens, HCT-116, 144 h, read-out: Prolif_HCT116-WT IC50
Outline: (§1)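 Luminescent viability signal was measured after continuous drug exposure. Before dosing, cells attached overnight (37° C, 5% CO2) in RPMI 1640 + 10% FBS. Dosing used 1:3 steps over 8 or 9 points, starting at 1 or 10 µM, with DMSO-only wells as control.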

[2] = target: PRMT5/MEP50 (Homo sapiens, UniProt O14744); test: MTase-Glo methyl transferase assay, Method A (Histone H4 peptide, 1 µM MTA, 24 h pre-incubation); assay type: biochemical; parameters: made in house; conditions: read-out: PRMT5 MTase Glo Ki (nM, Meth. A)
PRMT5/MEP50, sequence (O14744 whole entry): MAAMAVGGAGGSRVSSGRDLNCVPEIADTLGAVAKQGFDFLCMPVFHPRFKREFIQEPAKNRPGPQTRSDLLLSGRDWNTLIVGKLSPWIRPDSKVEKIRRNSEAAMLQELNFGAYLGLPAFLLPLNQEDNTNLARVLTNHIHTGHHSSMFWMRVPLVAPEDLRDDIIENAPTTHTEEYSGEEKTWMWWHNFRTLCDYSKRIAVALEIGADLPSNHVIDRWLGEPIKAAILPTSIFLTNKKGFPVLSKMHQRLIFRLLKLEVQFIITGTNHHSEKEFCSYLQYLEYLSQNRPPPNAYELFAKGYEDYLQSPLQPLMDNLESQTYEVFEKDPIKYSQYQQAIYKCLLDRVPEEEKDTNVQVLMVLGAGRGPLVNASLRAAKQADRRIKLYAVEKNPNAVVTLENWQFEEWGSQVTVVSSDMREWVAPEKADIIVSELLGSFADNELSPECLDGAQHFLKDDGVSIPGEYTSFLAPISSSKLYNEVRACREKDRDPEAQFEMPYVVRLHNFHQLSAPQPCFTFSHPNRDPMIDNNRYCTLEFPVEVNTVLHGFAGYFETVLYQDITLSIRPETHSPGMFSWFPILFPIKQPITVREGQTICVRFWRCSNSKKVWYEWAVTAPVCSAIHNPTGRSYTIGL
PRMT5/MEP50, sequence (Q9BQA1 whole entry partner): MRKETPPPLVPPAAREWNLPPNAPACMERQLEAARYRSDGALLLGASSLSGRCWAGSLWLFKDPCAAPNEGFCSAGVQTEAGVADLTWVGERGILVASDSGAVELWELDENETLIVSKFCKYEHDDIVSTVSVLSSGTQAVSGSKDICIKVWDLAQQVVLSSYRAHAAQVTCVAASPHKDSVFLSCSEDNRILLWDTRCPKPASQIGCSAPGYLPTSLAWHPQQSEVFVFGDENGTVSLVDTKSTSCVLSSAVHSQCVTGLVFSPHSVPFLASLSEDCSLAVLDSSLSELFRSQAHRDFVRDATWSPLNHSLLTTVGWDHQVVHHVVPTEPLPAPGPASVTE
Outline: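 Luminescent SAH detection (MTase-Glo) after a 2 h room-temperature methylation of 1 µM biotinylated H4 (1-21) peptide by 10 nM PRMT5/MEP50 with 5 µM SAM, in 50 mM Tris pH 8.0.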

[3] = test system: HCT116 MTAP null cells; test: HCT116 proliferation assay, MTAP null cells (CellTiter-Glo, 6 days); assay type: cell-based; conditions: HCT116-MTAP null, 144 h, read-out: Protif_ HCT116-MTAP null IC50
Outline: as §1

| IC50 [1] | Ki [2] | IC50 [3] | SMILES |
| --- | --- | --- | --- |
| 526 nM | 0.04 nM | 15 nM | Cc1cc2cc(C(=O)N(Cc3ccc(Br)cn3)[C@H](C)c3ncccn3)ccc2nc1N [Example 402] |
| 3160 nM | 1.68 nM | 90 nM | Cc1cc2cc(C(=O)N(Cc3ccc(C#N)cn3)[C@H](C)c3ncccn3)c(F)cc2nc1N [Example 404, 2-amino-N-((5-cyano-2-pyridinyl)methyl)-7-fluoro-3-methyl-N-((1R)-1-(2-pyrimidinyl)ethyl)-6-quinolinecarboxamide] |
| > 10000 nM | 0.13 nM | 597 nM | C[C@H](c1ncccn1)N(Cc1ccc(C#N)cn1)C(=O)c1ccc2nc(N)c(Cl)cc2c1 [Example 408, 2-amino-3-chloro-N-((5-cyano-2-pyridinyl)methyl)-N-((1R)-1-(2-pyrimidinyl)ethyl)-6-quinolinecarboxamide] |
| > 10000 nM | 0.24 nM | 692 nM | Cc1cc2cc(C(=O)N(Cc3ccc(C(F)F)cn3)[C@H](C)c3ncccn3)cnc2nc1N [Example 409, 7-amino-N-((5-(difluoromethyl)-2-pyridinyl)methyl)-6-methyl-N-((1R)-1-(2-pyrimidinyl)ethyl)-1,8-naphthyridine-3-carboxamide] |
| 4050 nM | 0.18 nM | 123 nM | C[C@H](c1ncccn1)N(Cc1ccc(Cl)cn1)C(=O)c1ccc2nc(N)c(Br)cc2c1 [Example 412, 2-amino-3-bromo-N-((5-chloro-2-pyridinyl)methyl)-N-((1R)-1-(2-pyrimidinyl)ethyl)-6-quinolinecarboxamide] |
| 5180 nM | 0.3 nM | 234 nM | C[C@H](c1ncccn1)N(Cc1ccc(Cl)cn1)C(=O)c1cnc2nc(N)c(Br)cc2c1 [Example 414, 7-amino-6-bromo-N-((5-chloro-2-pyridinyl)methyl)-N-((1R)-1-(2-pyrimidinyl)ethyl)-1,8-naphthyridine-3-carboxamide] |
| 490 nM | 0.54 nM | 39 nM | Cc1cc2cc(C(=O)N(Cc3ccc(Cl)cn3)[C@H](C)c3ncccn3)c(F)cc2nc1N [Example 415, 2-amino-N-((5-chloro-2-pyridinyl)methyl)-7-fluoro-3-methyl-N-((1R)-1-(2-pyrimidinyl)ethyl)-6-quinolinecarboxamide] |
| > 10000 nM | 0.27 nM | 500 nM | Cc1cc2cc(C(=O)N(Cc3ccc(C#N)cn3)[C@H](C)c3ncccn3)ncc2nc1N [Example 418, 2-amino-N-((5-cyano-2-pyridinyl)methyl)-3-methyl-N-((1R)-1-(2-pyrimidinyl)ethyl)-1,7-naphthyridine-6-carboxamide] |
| 1130 nM | 0.54 nM | 56 nM | Cc1cc2cc(C(=O)N(Cc3ccc(C#N)cn3)[C@@H](c3ncccn3)C3CC3)c(F)cc2nc1N [Example 421, 2-amino-N-((5-cyano-2-pyridinyl)methyl)-N-((R)-cyclopropyl(2-pyrimidinyl)methyl)-7-fluoro-3-methyl-6-quinolinecarboxamide] |
| 4250 nM | 0.1 nM | 151 nM | Cc1cc2cc(C(=O)N(Cc3ccc(OC4COC4)cn3)[C@H](C)c3ncccn3)ccc2nc1N [Example 427, 2-amino-3-methyl-N-((5-(3-oxetanyloxy)-2-pyridinyl)methyl)-N-((1R)-1-(2-pyrimidinyl)ethyl)-6-quinolinecarboxamide] |

The next lines start with the compound.

| SMILES | IC50 [1] | Ki [2] | IC50 [3] |
| --- | --- | --- | --- |
| COC(=O)c1ccc(CN(C(=O)c2ccc3nc(N)c(C)cc3c2)[C@H](C)c2ncccc2F)nc1 [Example 403, methyl 6-((((2-amino-3-methyl-6-quinolinyl)carbonyl)((1R)-1-(3-fluoro-2-pyridinyl)ethyl)amino)methyl)-3-pyridinecarboxylate] | 8880 nM | 0.55 nM | 263 nM |
| Cc1cc2cc(C(=O)N(Cc3ccc(C#N)cn3)[C@H](C)c3ccccc3F)ccc2nc1N [Example 405, 2-amino-N-((5-cyano-2-pyridinyl)methyl)-N-((1R)-1-(2-fluorophenyl)ethyl)-3-methyl-6-quinolinecarboxamide] | 1040 nM | 0.03 nM | 54 nM |
| C[C@H](c1ncccn1)N(Cc1ccc(C#N)cn1)C(=O)c1cnc2nc(N)c(Br)cc2c1 [Example 406, 7-amino-6-bromo-N-((5-cyano-2-pyridinyl)methyl)-N-((1R)-1-(2-pyrimidinyl)ethyl)-1,8-naphthyridine-3-carboxamide] | > 10000 nM | 0.47 nM | 682 nM |
| C[C@H](c1ncccn1)N(Cc1ccc(C(F)F)cn1)C(=O)c1cnc2nc(N)c(Br)cc2c1 [Example 407, 7-amino-6-bromo-N-((5-(difluoromethyl)-2-pyridinyl)methyl)-N-((1R)-1-(2-pyrimidinyl)ethyl)-1,8-naphthyridine-3-carboxamide] | > 10000 nM | 0.11 nM | 291 nM |
| C[C@H](c1ncccn1)N(Cc1ccc(C(F)F)cn1)C(=O)c1ccc2nc(N)c(Br)cc2c1 [Example 410, 2-amino-3-bromo-N-((5-(difluoromethyl)-2-pyridinyl)methyl)-N-((1R)-1-(2-pyrimidinyl)ethyl)-6-quinolinecarboxamide] | 5390 nM | 0.04 nM | 88 nM |
| COc1ccc(CN(C(=O)c2ccc3nc(N)c(Br)cc3c2)[C@H](C)c2ncccn2)nn1 [Example 411, 2-amino-3-bromo-N-((6-methoxy-3-pyridazinyl)methyl)-N-((1R)-1-(2-pyrimidinyl)ethyl)-6-quinolinecarboxamide] | > 10000 nM | 0.22 nM | 182 nM |
| COc1ccc(CN(C(=O)c2ccc3nc(N)c(Cl)cc3c2)[C@H](C)c2ncccn2)nn1 [Example 413, 2-amino-3-chloro-N-((6-methoxy-3-pyridazinyl)methyl)-N-((1R)-1-(2-pyrimidinyl)ethyl)-6-quinolinecarboxamide] | > 10000 nM | 0.65 nM | 655 nM |
| Cc1cc2cc(C(=O)N(Cc3ccc(Br)nn3)[C@@H]3CCCn4ncnc43)ccc2nc1N [Example 416, 2-amino-N-((6-bromo-3-pyridazinyl)methyl)-3-methyl-N-((8R)-5,6,7,8-tetrahydro[1,2,4]triazolo[1,5-a]pyridin-8-yl)-6-quinolinecarboxamide] | 6650 nM | 0.17 nM | 262 nM |
| C[C@H](c1ncccn1)N(Cc1ccc(C#N)cn1)C(=O)c1ccc2nc(N)c(Br)cc2c1 [Example 417, 2-amino-3-bromo-N-((5-cyano-2-pyridinyl)methyl)-N-((1R)-1-(2-pyrimidinyl)ethyl)-6-quinolinecarboxamide] | > 10000 nM | 0.33 nM | 151 nM |
| C[C@H](c1ncccn1)N(Cc1ccc(C(F)(F)F)cn1)C(=O)c1cc2cc(Br)c(N)nc2cn1 [Example 419, 2-amino-3-bromo-N-((1R)-1-(2-pyrimidinyl)ethyl)-N-((5-(trifluoromethyl)-2-pyridinyl)methyl)-1,7-naphthyridine-6-carboxamide] | > 10000 nM | 0.16 nM | 271 nM |
| C[C@H](c1ncccn1)N(Cc1ccc(C(F)(F)F)cn1)C(=O)c1cnc2nc(N)c(Cl)cc2c1 [Example 420, 7-amino-6-chloro-N-((1R)-1-(2-pyrimidinyl)ethyl)-N-((5-(trifluoromethyl)-2-pyridiny1)methyl)-1,8-naphthyridine-3-carboxamide] | 3450 nM | 0.18 nM | 225 nM |
| C[C@H](c1ncccn1)N(Cc1ccc(C(F)(F)F)cn1)C(=O)c1cc2cc(Cl)c(N)nc2cn1 [Example 422, 2-amino-3-chloro-N-((1R)-1-(2-pyrimidinyl)ethyl)-N-((5-(trifluoromethyl)-2-pyridinyl)methyl)-1,7-naphthyridine-6-carboxamide] | > 10000 nM | 0.2 nM | 360 nM |
| Cc1cc2cc(C(=O)N(Cc3ccc(C#N)cn3)[C@@H](c3ncccn3)C3CC3)ccc2nc1N [Example 423, 2-amino-N-((5-cyano-2-pyridinyl)methyl)-N-((R)-cyclopropyl(2-pyrimidinyl)methyl)-3-methyl-6-quinolinecarboxamide] | 1830 nM | 0.07 nM | 54 nM |
| C[C@H](c1ncccc1F)N(Cc1ccc(Br)nn1)C(=O)c1cnc2nc(N)c(Br)cc2c1 [Example 424, 7-amino-6-bromo-N-((6-bromo-3-pyridazinyl)methyl)-N-((1R)-1-(3-fluoro-2-pyridinyl)ethyl)-1,8-naphthyridine-3-carboxamide] | 9080 nM | 0.61 nM | 319 nM |
| N#Cc1ccc(CN(C(=O)c2cnc3nc(N)c(Br)cc3c2)[C@@H](c2ncccn2)C2CC2)nc1 [Example 425, (R)-7-amino-6-bromo-N-((5-cyanopyridin-2-yl)methyl)-N-(cyclopropyl(pyrimidin-2-yl)methyl)-1,8-naphthyridine-3-carboxamide] | 2170 nM | 0.68 nM | 380 nM |
| C[C@H](c1ncccn1)N(Cc1ccc(OC2COC2)cn1)C(=O)c1cnc2nc(N)c(Br)cc2c1 [Example 426, 7-amino-6-bromo-N-((5-(3-oxetanyloxy)-2-pyridinyl)methyl)-N-((1R)-1-(2-pyrimidinyl)ethyl)-1,8-naphthyridine-3-carboxamide] | > 10000 nM | 0.47 nM | 964 nM |
